# Measured values taken from PubChem BioAssay AID652070 (Broad Institute, 2013).
# Results filed as inconclusive are left out.
# Test system: HT29 HRAS cells, caspase 3/7 luminescence, apoptosis
# Experiment: caspase 3/7 activation in HT29 HRAS cells, mechanism study for HRAS target identification, cell-based, caspase 3/7 luminescence, multiple timepoints, dry powder (AID 652070)
# Conditions: measured here: second timepoint caspase 3/7
smiles,measurement,value
O=C(NCCOCCOCCOc1ccc(N(C(=O)CCl)C(C(=O)NCCc2ccccc2)c2cccs2)cc1Cl)c1ccc(COC2C#CCCCCC2)cc1 (stereo unspecified),AC40,> 35 µM
